Laboratory results published in US20050070570A1, “Novel potassium channels modulators” (4SC AG, priority 2003, published 2005).

Molecular target: BK channels (CHO cells permanently transfected with cloned hSlo, α-hSlo and β-bSlo) (Homo sapiens, UniProt Q12791)
Assay: Em-Assay: fluorescence membrane potential assay with voltage sensitive dye DiBAC(4)3
Assay type: cell-based
Conditions: ratio of the compound effect (50 μM) compared to the maximal effect of NS004 (25 or 50 μM)
From the text: The large conductance, voltage-dependent and Ca^2+-activated potassium channel BK is a potassium selective ion channel and belongs to the subfamily of KCa channels. Four BK alpha-subunits form a functional channel that can be regulated by intracellular Ca^2+ concentration, membrane voltage, and other mechanisms like phosphorylation states or beta subunits. To test the biological activity of the compounds, we applied two different techniques, a fluorescence based assay using a voltage sensitive dye (Em-Assay) as well as exploiting electrophysiological methods.
CHO cells permanently transfected with cloned hSlo (α-hSlo and β-bSlo), yielding typical BK potassium currents (Zhou et al., Pflügers Arch., 436: 725-734 (1998), were used for the evaluation of compound activity. Activation or inhibition of BK channels in these cells leads to a change of the electrochemical gradient causing a hyperpolarized or depolarised membrane potential, respectively.
To determine changes in the membrane potential of the cells we used the voltage sensitive dye DiBaC(4)3 (Molecular Probes) in a kinetic assay system using a fluorescent plate reader (Manning and Sontheimer, J. Neurosci. Meth., 91: 73-81 (1999). The anionic bis-oxonol DiBAC(4)3 is a voltage sensitive dye which partitions from the extracellular environment into the cell where it reversibly binds to intracellular proteins, a kinetic process depending on the membrane potential of the cell. At depolarised potentials (i.e. at a reduced K^+ efflux due to blocked K^+ channels) the dye accumulates in the cell leading to an increased fluorescence intensity, due to its increased fluorescence if bound to cellular proteins. At hyperpolarized potentials (i.e. at an increased K^+ efflux due to the opening of K^+ channels), the dye partitions out of the cell causing a decreased fluorescence intensity.
hslo transfected CHO cells where maintained in DMEM supplemented with 10% FCS, 250 μg/ml Geneticin, 100 μg/m Hygromycin, 1×HT-Supplement, and 1×Non-essential Amino Acids and cultured in a humidified CO2 incubator. After trypsination, cells where plated with a density of 5×10^4 cells per well on a clear 96-well plate and incubated for 24 h. Cells where washed once with PBS, once with PBS containing 20 mM HEPES (adjusted to pH 7.4 with NaOH) and 2 μM DiBAC(4)3 (DPBS-DiBAC solution). 180 μl of the dPBS-DiBAC solution was then added to the cells and the plate incubated for 30-60 min at 37° C. During this time the dye could partition into the cells and reach a certain steady-state distribution, depending on the resting membrane potential. Test and reference compounds were stored as DMSO stock solutions and diluted in dPBS-DiBAC solution to the desired concentration.
Fluorescence intensity (Ex.: 485 nm/Em.: 520 nm) of each well was detected in the plate reader (Fluostar, BMG) every 60 seconds. After recording the baseline fluorescence for 7 minutes, 20 μl test- and reference compounds were added and the fluorescence intensity was detected for additional 15 minutes. Background was subtracted, data values were normalized and expressed as a change in fluorescence intensity against time. The change in fluorescence intensity caused by the test compounds was evaluated, compared to the effect of the reference compound NS004, and the ratio was determined (see Table I).

Chain of BK channels (CHO cells permanently transfected with cloned hSlo, α-hSlo and β-bSlo) (Q12791 whole entry): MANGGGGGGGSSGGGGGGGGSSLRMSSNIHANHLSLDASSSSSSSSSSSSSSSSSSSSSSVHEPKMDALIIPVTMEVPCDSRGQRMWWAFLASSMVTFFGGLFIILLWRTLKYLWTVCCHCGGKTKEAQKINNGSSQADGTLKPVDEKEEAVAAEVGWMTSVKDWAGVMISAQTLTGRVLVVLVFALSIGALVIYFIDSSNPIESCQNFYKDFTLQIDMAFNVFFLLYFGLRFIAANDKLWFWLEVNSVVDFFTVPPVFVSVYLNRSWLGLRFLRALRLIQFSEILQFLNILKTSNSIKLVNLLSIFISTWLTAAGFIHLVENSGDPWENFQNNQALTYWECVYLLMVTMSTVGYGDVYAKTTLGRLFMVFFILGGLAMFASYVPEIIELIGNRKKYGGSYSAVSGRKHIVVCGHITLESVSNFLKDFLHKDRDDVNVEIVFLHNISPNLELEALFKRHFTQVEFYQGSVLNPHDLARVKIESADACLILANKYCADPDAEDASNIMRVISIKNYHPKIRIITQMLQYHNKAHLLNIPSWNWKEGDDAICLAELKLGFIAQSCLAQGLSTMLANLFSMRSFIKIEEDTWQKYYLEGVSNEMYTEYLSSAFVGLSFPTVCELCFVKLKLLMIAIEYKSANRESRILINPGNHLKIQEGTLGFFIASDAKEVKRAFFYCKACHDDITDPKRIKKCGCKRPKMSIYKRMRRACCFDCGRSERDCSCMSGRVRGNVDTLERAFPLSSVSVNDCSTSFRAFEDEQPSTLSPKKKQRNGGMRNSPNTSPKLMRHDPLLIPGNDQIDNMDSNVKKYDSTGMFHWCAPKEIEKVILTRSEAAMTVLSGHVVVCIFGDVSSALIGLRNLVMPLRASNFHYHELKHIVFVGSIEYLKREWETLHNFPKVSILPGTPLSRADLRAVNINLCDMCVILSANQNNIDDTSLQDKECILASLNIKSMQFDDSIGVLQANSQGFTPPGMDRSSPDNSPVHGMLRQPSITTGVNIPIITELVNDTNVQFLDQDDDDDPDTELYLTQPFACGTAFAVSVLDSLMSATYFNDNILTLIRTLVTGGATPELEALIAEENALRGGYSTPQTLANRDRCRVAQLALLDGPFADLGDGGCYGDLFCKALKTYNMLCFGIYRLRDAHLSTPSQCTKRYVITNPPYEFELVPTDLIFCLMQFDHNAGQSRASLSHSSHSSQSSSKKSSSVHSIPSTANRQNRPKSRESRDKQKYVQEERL
Chain of BK channels (CHO cells permanently transfected with cloned hSlo, α-hSlo and β-bSlo) (Q28067 whole entry partner): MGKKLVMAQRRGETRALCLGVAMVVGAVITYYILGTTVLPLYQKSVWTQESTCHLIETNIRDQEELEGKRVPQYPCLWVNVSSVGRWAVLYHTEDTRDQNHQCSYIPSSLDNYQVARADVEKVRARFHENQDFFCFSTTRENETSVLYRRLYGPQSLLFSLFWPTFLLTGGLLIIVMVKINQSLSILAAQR

Row | Structure (SMILES) | Em effect
1 | COc1ccc(C(=O)N2CCc3cc(OC)cc(OC)c3C2c2ccc(-c3ccccc3)cc2)cc1 (centres unmarked) [Compound 1, (1-Biphenyl-4-yl-6,8-dimethoxy-3,4-dihydro-1H-isoquinolin-2-yl)-(4-methoxy-phenyl)-methanone] | + (0-1=+)
2 | COc1cc2c(c(OC)c1)C(c1ccc(-c3ccccc3)cc1)N(C(=O)c1ccc([N+](=O)[O-])cc1)CC2 (centres unmarked) [Compound 2, (1-Biphenyl-4-yl-6,8-dimethoxy-3,4-dihydro-1H-isoquinolin-2-yl)-(4-nitro-phenyl)-methanone] | + (0-1=+)
3 | COc1cc2c(c(OC)c1)C(c1ccc(-c3ccccc3)cc1)N(C(=O)c1cccc(Br)c1)CC2 (centres unmarked) [Compound 3, (1-Biphenyl-4-yl-6,8-dimethoxy-3,4-dihydro-1H-isoquinolin-2-yl)-(3-bromo-phenyl) methanone] | + (0-1=+)
4 | COc1cc2c(c(OC)c1)C(c1ccc(-c3ccccc3)cc1)N(C(=O)c1ccc(C(F)(F)F)cc1)CC2 (centres unmarked) [Compound 4, (1-Biphenyl-4-yl-6,8-dimethoxy-3,4-dihydro-1H-isoquinolin-2-yl)-(4-trifluoromethylphenyl)-methanone] | + (0-1=+)
5 | COc1cc2c(c(OC)c1)C(c1ccc(-c3ccccc3)cc1)N(C(=O)c1ccc(C(F)(F)F)cc1F)CC2 (centres unmarked) [Compound 5, (1-Biphenyl-4-yl-6,8-dimethoxy-3,4-dihydro-1H-isoquinolin-2-yl)-(2-fluoro-4-trifluoromethyl-phenyl)-methanone] | + (0-1=+)
6 | COc1cc2c(c(OC)c1)C(c1ccc(-c3ccccc3)cc1)N(C(=O)c1ccc(C(C)(C)C)cc1)CC2 (centres unmarked) [Compound 6, (1-Biphenyl-4-yl-6,8-dimethoxy-3,4-dihydro-1H-isoquinolin-2-yl)-(4-tert-butyl-phenyl)-methanone] | + (0-1=+)
7 | COc1cc2c(c(OC)c1)C(c1ccc(-c3ccccc3)cc1)N(C(=O)c1ccc(OC(F)(F)F)cc1)CC2 (centres unmarked) [Compound 7, (1-Biphenyl-4-yl-6,8-dimethoxy-3,4-dihydro-1H-isoquinolin-2-yl)-(4-trifluoromethoxy-phenyl)-methanone] | + (0-1=+)
8 | COc1cc2c(c(OC)c1)C(c1ccc(-c3ccccc3)cc1)N(C(=O)c1cc(C(F)(F)F)cc(C(F)(F)F)c1)CC2 (centres unmarked) [Compound 8, (1-Biphenyl-4-yl-6,8-dimethoxy-3,4-dihydro-1H-isoquinolin-2-yl)-(3,5-bis-trifluoromethyl-phenyl)methanone] | + (0-1=+)
9 | COc1cccc(C(=O)N2CCc3cc(OC)cc(OC)c3C2c2ccc(O)cc2)c1 (centres unmarked) [Compound 9, [1-(4-Hydroxy-phenyl)-6,8-dimethoxy-3,4-dihydro-1H-isoquinolin-2-yl]-(3-methoxy-phenyl)-methanone] | + (0-1=+)
10 | COc1cc2c(c(OC)c1)C(c1ccc(O)cc1)N(C(=O)CCCCBr)CC2 (centres unmarked) [Compound 10, 5-Bromo-1-[1-(4-hydroxy-phenyl)-6,8-dimethoxy-3,4-dihydro-1H-isoquinolin-2-yl]-pentan-1-one] | + (0-1=+)
11 | COc1cc2c(c(OC)c1)C(c1ccc(O)cc1)N(C(=O)c1cccc(OC(F)(F)F)c1)CC2 (centres unmarked) [Compound 11, [1-(4-Hydroxy-phenyl)-6,8-dimethoxy-3,4-dihydro-1H-isoquinolin-2-yl]-(3-trifluoromethoxy-phenyl)-metanone] | + (0-1=+)
12 | COc1cc2c(c(OC)c1)C(c1ccc(O)cc1)N(C(=O)CCc1ccccc1)CC2 (centres unmarked) [Compound 12] | + (0-1=+)
13 | COc1cc2c(c(OC)c1)C(c1ccc(O)cc1)N(C(=O)c1ccccc1OC(F)(F)F)CC2 (centres unmarked) [Compound 13] | + (0-1=+)
14 | COc1cc2c(c(OC)c1)C(c1ccc(O)cc1)N(C(=O)c1ccc(C(C)(C)C)cc1)CC2 (centres unmarked) [Compound 14, (4-tert-Butyl-phenyl)-[1-(4-hydroxy-phenyl)-6,8-dimethoxy-3,4-dihydro-1-H-isoquinolin-2-yl]-methanone] | + (0-1=+)
